{
  "source": "patent US20080287479A1",
  "about": "“INHIBITORS OF SERINE PALMITOYLTRANSFERASE” (Pfizer Inc, priority 2006, published 2008)",
  "biological_target": "T1, Serine Palmitoyl Transferase (SPT); microsomes from HEK 293 cells stably transfected with human LCB2 subunit of SPT (Homo sapiens, UniProt O15270)",
  "T1 construct": "expressed in transfected cells; host or cells: HEK 293 cells stably transfected with LCB2; microsomal fraction",
  "T1 sequence (O15270 1-562)": "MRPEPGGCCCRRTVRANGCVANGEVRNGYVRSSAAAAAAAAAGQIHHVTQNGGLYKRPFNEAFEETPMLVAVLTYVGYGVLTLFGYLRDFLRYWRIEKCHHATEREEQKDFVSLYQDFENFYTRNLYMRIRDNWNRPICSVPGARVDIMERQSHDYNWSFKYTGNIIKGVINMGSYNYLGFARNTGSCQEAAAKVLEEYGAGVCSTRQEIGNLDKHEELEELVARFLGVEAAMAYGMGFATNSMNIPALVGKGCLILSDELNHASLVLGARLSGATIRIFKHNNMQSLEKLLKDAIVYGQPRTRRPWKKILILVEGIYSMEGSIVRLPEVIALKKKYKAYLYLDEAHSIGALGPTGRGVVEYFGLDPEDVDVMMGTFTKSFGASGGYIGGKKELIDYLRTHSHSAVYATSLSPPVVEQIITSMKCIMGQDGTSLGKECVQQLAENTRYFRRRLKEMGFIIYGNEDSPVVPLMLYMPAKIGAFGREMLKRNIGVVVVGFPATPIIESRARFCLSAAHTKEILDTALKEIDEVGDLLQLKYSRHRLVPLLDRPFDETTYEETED",
  "T1 sequence (O15269 1-473 partner)": "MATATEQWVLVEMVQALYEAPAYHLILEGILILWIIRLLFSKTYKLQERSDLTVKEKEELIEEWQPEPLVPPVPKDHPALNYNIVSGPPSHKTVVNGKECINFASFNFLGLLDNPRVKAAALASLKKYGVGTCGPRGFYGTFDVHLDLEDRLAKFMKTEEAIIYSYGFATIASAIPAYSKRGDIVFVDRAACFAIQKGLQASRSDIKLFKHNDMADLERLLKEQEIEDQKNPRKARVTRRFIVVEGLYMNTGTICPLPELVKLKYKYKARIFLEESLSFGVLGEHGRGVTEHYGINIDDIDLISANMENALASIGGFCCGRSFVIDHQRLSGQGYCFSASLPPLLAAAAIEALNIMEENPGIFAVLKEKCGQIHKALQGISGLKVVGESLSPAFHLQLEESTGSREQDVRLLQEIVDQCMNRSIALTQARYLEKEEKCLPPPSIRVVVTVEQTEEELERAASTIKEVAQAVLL",
  "T1 sequence (Q969W0 1-71 partner)": "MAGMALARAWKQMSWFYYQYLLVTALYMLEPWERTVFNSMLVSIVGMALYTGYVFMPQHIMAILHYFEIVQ",
  "assay": "SPT flashplate assay",
  "type": "biochemical",
  "key": {"[1]": {"conditions": "microsomes of HEK 293 LCB2 cells, 3H-serine and palmitoyl CoA, phospholipid coated flashplate, 18-24 hours at room temperature, read-out: SPTISF IC50"}},
  "note": "Where a name gives a salt, the structure may show the parent alone. Read-outs that look alike come from different tables or passages of the source.",
  "data": [
    {"molecule": "CCc1ccc(C(=O)CN2CCC(n3c(=O)[nH]c4cc(C(=O)NC)c(F)cc43)CC2)cc1", "note": "[Example 9, 1-[2-(4-ethylphenyl)-2-oxoethyl]-4-{6-fluoro-5-[(methylamino)carbonyl]-2-oxo-2,3-dihydro-1H-benzimidazol-1-yl}piperidinium chloride]", "values": [
      {"measurement": "IC50", "setting": "SPTISF IC50 (nM)", "result": 6.2, "unit": "nM"}
    ]},
    {"molecule": "CNC(=O)c1cc2[nH]c(=O)n(C3CCN(CC(=O)C4CCCCC4)CC3)c2cc1F", "note": "[Example 11, 1-[1-(2-cyclohexyl-2-oxoethyl)piperidin-4-yl]-6-fluoro-N-methyl-2-oxo-2,3-dihydro-1H-benzimidazole-5-carboxamide]", "values": [
      {"measurement": "IC50", "setting": "[1]", "result": 63, "unit": "nM"}
    ]},
    {"molecule": "CNC(=O)c1cc2[nH]c(=O)n(C3CCN(CC(=O)C4CCC(F)(F)CC4)CC3)c2cc1F", "note": "[Example 12, 1-{1-[2-(4,4-difluorocyclohexyl)-2-oxoethyl]piperidin-4-yl}-6-fluoro-N-methyl-2-oxo-2,3-dihydro-1H-benzimidazole-5-carboxamide]", "values": [
      {"measurement": "IC50", "setting": "[1]", "result": 5.3, "unit": "nM"}
    ]},
    {"molecule": "CNC(=O)c1cc2[nH]c(=O)n(C3CCN(CC(=O)C4CCC(C)CC4)CC3)c2cc1F", "note": "(stereo not drawn) [Example 13, 6-fluoro-N-methyl-1-{1-[2-(4-methylcyclohexyl)-2-oxoethyl]piperidin-4-yl}-2-oxo-2,3-dihydro-1H-benzimidazole-5-carboxamide]", "values": [
      {"measurement": "IC50", "setting": "[1]", "result": 6, "unit": "nM"}
    ]},
    {"molecule": "CNC(=O)c1cc2[nH]c(=O)n(C3CCN(CC(=O)C4CCC(C(C)(C)C)CC4)CC3)c2cc1F", "note": "(stereo not drawn) [Example 14, 1-{1-[2-(4-tert-butylcyclohexyl)-2-oxoethyl]piperidin-4-yl}-6-fluoro-N-methyl-2-oxo-2,3-dihydro-1H-benzimidazole-5-carboxamide]", "values": [
      {"measurement": "IC50", "setting": "[1]", "result": 106, "unit": "nM"}
    ]},
    {"molecule": "CNC(=O)c1cc2[nH]c(=O)n(C3CCN(CC(=O)C4CCC(C(F)(F)F)CC4)CC3)c2cc1F", "note": "(stereo not drawn) [Example 15, 6-fluoro-N-methyl-2-oxo-1-(1-{2-oxo-2-[4(trifluoromethyl)cyclohexyl]ethyl}piperidin-4-yl)-2,3-dihydro-1H-benzimidazole-5-carboxamide]", "values": [
      {"measurement": "IC50", "setting": "[1]", "result": 9.5, "unit": "nM"}
    ]},
    {"molecule": "CNC(=O)c1cc2[nH]c(=O)n(C3CCN(CC(=O)C4CCC(C)(OC)CC4)CC3)c2cc1F", "note": "(stereo not drawn) [Example 16, 6-fluoro-1-{1-[2-(4-methoxy-4-methylcyclohexyl)-2-oxoethyl]piperidin-4-yl}-N-methyl-2-oxo-2,3-dihydro-1H-benzimidazole-5-carboxamide]", "values": [
      {"measurement": "IC50", "setting": "[1]", "result": 53, "unit": "nM"}
    ]},
    {"molecule": "CNC(=O)c1cc2[nH]c(=O)n(C3CCN(CC(=O)C4(C)CCCCC4)CC3)c2cc1F", "note": "[Example 17, 6-fluoro-N-methyl-1-{1-[2-(1-methylcyclohexyl)-2-oxoethyl]piperidin-4-yl}-2-oxo-2,3-dihydro-1H-benzimidazole-5-carboxamide]", "values": [
      {"measurement": "IC50", "setting": "[1]", "result": 7.14, "unit": "nM"}
    ]},
    {"molecule": "CNC(=O)c1ccc2c(c1)CC(=O)N2C1CCN(CC(=O)N2CCC(C)(OC)CC2)CC1", "note": "[Example 19, 1-[2-(4-methoxy-4-methylpiperidin-1-yl)-2-oxoethyl]-4-{5-[(methylamino)carbonyl]-2-oxo-2,3-dihydro-1H-indol-1-yl}piperidinium chloride]", "values": [
      {"measurement": "IC50", "setting": "SPTISF IC50 (nM)", "result": 18.7, "unit": "nM"}
    ]},
    {"molecule": "CNC(=O)c1ccc2c(c1)CC(=O)N2C1CCN(CC(=O)N2C[C@H]3CCC[C@H]3C2)CC1", "note": "[Example 20, 1-{2-[(3aR,6aS)-hexahydrocyclopenta[c]pyrrol-2(1H)-yl]-2-oxoethyl}-4-{5-[(methylamino)carbonyl]-2-oxo-2,3-dihydro-1H-indol-1-yl}piperidinium hydrogen sulfate]", "values": [
      {"measurement": "IC50", "setting": "SPTISF IC50 (nM)", "result": 11.4, "unit": "nM"}
    ]},
    {"molecule": "CNC(=O)c1cc2c(cc1F)N(C1CCN(CC(=O)N3C[C@H]4CCC[C@H]4C3)CC1)C(=O)C2", "note": "[Example 21, 4-{6-fluoro-5-[(methylamino)carbonyl]-2-oxo-2,3-dihydro-1H-indol-1-yl}-1-{2-[(3aR,6aS)-hexahydrocyclopenta[c]pyrrol-2(1H)-yl]-2-oxoethyl}piperidinium chloride]", "values": [
      {"measurement": "IC50", "setting": "SPTISF IC50 (nM)", "result": 14.6, "unit": "nM"}
    ]},
    {"molecule": "CNC(=O)c1cc2c(cc1F)N(C1CCN(CC(=O)N3CCC(C)(C)CC3)CC1)C(=O)C2", "note": "[Example 22, 1-[2-(4,4-dimethylpiperidin-1-yl)-2-oxoethyl]-4-{6-fluoro-5-[(methylamino)carbonyl]-2-oxo-2,3-dihydro-1H-indol-1-yl}piperidinium chloride]", "values": [
      {"measurement": "IC50", "setting": "SPTISF IC50 (nM)", "result": 10.6, "unit": "nM"}
    ]}
  ]
}
